Patent US5747493A, “Dopamine re-uptake inhibitor” (Pola Chemical Industries, Inc., priority 1993, dated 1998)
Structures can show the parent of a compound that is named as a salt.

Target: T1, [^3 H] GBR12935 binding in rat strialal crude membrane (Rattus norvegicus, UniProt P23977)
T1 construct: from tissue; host or cells: corpus striatum of Wistar male rat, crude membrane
Test: [^3 H] GBR12935 binding in rat striatal crude membrane
Set-up: species or system rat (Wistar male)
Conditions: 1 nM [^3 H] GBR12935, rat striatal crude membrane; for IC50: 4° C., 80 minutes
Procedure: After a cold 50 mM Tris-citrate buffer (pH 7.4, including 120 mM NaCl and 4 mM MgCl2) was added to a corpus striatum taken out of a Wistar male rat aged 12-13 weeks (while keeping on ice) to homogenize the resultant mixture, the homogenate was subjected twice to centrifugation under chilling for 20 minutes at 48,000 g. The final sedimentation residue thus obtained was suspended again in the same buffer as that used above to conserve the suspension at -80° C.
After thawing this frozen suspension, the thawed suspension was diluted to one thousandth of the amount of the tissue with the same buffer as that used above. To 0.8 ml of this crude membrane sample, were added [^3 H] GBR12935 (final concentration: 1 nM) and individual test substances and amantadine which is in clinical use at present (developing the concentration within a range of from 10^-3 to 10^-9 M) to 1 ml in total. Each of the resulting sample mixtures was incubated at 4° C. for 80 minutes in a plastic tube. After the incubation, the mixture was filtered by means of suction on a glass filter (Whatman GP/B) soaked in a 0.1% BSA, and the filter was washed three times with 3 ml of cold 0.9% NaCl. The thus-obtained filter was placed in a vial, and 10 ml of Aquazol-2 were added to conserve the filter overnight. Thereafter, the radioactivity of the sample was measured by a liquid scintillation counter. An IC50 value and a Hill coefficient were determined from the obtained uptake inhibition curve as to each of the test samples.

T1 sequence (P23977 whole entry): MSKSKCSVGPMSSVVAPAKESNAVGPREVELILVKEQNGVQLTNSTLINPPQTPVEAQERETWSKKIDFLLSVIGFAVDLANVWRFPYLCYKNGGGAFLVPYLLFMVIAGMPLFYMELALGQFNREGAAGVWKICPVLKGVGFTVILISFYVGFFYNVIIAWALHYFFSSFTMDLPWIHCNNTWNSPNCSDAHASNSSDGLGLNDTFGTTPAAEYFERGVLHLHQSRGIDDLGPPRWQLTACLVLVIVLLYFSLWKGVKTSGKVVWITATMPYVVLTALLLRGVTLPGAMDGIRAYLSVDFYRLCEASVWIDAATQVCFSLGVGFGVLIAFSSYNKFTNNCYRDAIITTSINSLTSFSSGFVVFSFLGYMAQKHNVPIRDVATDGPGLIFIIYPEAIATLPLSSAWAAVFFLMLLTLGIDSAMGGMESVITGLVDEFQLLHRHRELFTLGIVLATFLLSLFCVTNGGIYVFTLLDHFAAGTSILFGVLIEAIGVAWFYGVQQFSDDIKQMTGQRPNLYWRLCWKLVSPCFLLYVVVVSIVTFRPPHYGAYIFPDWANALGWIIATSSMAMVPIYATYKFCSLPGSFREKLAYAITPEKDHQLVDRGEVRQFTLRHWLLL

Row | SMILES | Hill coefficient (nH) | IC50 [µM] | IC50 (amantadine line in μM) [µM]
1 | Cl.Cl.O=[N+]([O-])c1ccc(NCC(O)CN2CCN(CCCC(c3ccc(F)cc3)c3ccc(F)cc3)CC2)cc1 (centres unmarked) [Compound 20, 1-[4,4-Bis(4-fluorophenyl)-butyl]-4-[2-hydroxy-3-(4-nitrophenylamino)propyl]-piperazine dihydrochloride] | 0.69 ± 0.04 | 0.008 ± 0.0005 | 
2 | CC(C)(C)c1cc(NCC(O)CN2CCN(CCCC(c3ccc(F)cc3)c3ccc(F)cc3)CC2)cc(C(C)(C)C)c1O (centres unmarked) [Compound 22, 1-[4,4-Bis(4-fluorophenyl)-butyl]-4-[3-(3,5-di-tert-butyl-4-hydroxyphenylamino)-2-hydroxypropyl]piperazinetrimaleate] | 0.78 ± 0.07 | 0.087 ± 0.007 | 
3 | OC(CNc1ccccc1)CN1CCN(CC(c2ccccc2)c2ccccc2)CC1 (centres unmarked) [Compound 19, 1-(2,2-Diphenylethyl)-4-(2-hydroxy-3-phenylamino-propyl)piperazinedihydrochloride] | 0.76 ± 0.02 | 0.028 ± 0.002 | 
4 | OC(CNc1ccccc1)CN1CCN(CCC(c2ccc(F)cc2)c2ccc(F)cc2)CC1 (centres unmarked) [Compound 18, 1-[3,3-Bis(4-fluorophenyl)-propyl]-4-(2-hydroxy-3-phenylaminopropyl)piperazinedihydrochloride] | 0.67 ± 0.04 | 0.007 ± 0.00065 | 
5 | OC(CNc1ccccc1)CN1CCN(C(c2ccc(F)cc2)c2ccc(F)cc2)CC1 (centres unmarked) [Compound 2, 1-[Bis(4-fluorophenyl)methyl]-4-(2-hydroxy-3-phenylamino-propyl)piperazine dihydro-chloride] | 0.66 ± 0.05 | 0.02 ± 0.003 | 
6 | Cl.Cl.OC(CNc1ccc(Cl)cc1)CN1CCN(CCCC(c2ccc(F)cc2)c2ccc(F)cc2)CC1 (centres unmarked) [Compound 10, 1-[4,4-Bis(4-fluorophenyl)-butyl]-4-[3-(4-chlorophenyl-amino)-2-hydroxypropyl]-piperazine dihydrochloride] | 0.82 ± 0.03 | 0.003 ± 0.00032 | 
7 | NC12CC3CC(CC(C3)C1)C2 [Amantadine, amantadine, reference compound] | 1.36 ± 0.08 |  | 819 ± 30.9
8 | OC(CNc1ccccc1)CN1CCN(CCCC(c2ccc(F)cc2)c2ccc(F)cc2)CC1 (single isomer, unassigned; (-)) [Compound 15, (-)-1-[4,4-Bis(4-fluoro-phenyl)butyl]-4-(2-hydroxy-3-phenylaminopropyl)piperazinedihydrochloride] | 0.72 ± 0.05 | 0.002 ± 0.0001 | 
9 | OC(CNc1ccccc1)CN1CCN(CCCC(c2ccc(F)cc2)c2ccc(F)cc2)CC1 (single isomer, unassigned; (+)) [Compound 16, (+)-1-[4,4-Bis(4-fluoro-phenyl)butyl]-4-(2-hydroxy-3-phenylaminopropyl)piperazinedihydrochloride] | 0.57 ± 0.04 | 0.002 ± 0.00053 | 
10 | O=C(O)/C=C\C(=O)O.O=C(O)/C=C\C(=O)O.O=C(O)/C=C\C(=O)O.OC(CNc1ccncc1)CN1CCN(CCCC(c2ccc(F)cc2)c2ccc(F)cc2)CC1 (centres unmarked) [Compound 17, 1-[4,4-Bis(4-fluorophenyl)-butyl]-4-[2-hydroxy-3-(4-pyridylamino)propyl]-piperazine trimaleate] | 0.74 ± 0.04 | 0.034 ± 0.002 | 
11 | COc1cc(NCC(O)CN2CCN(CCCC(c3ccc(F)cc3)c3ccc(F)cc3)CC2)cc(OC)c1OC.O=C(O)/C=C\C(=O)O.O=C(O)/C=C\C(=O)O (centres unmarked) [Compound 11, 1-[4,4-Bis(4-fluorophenyl)-butyl]-4-[2-hydroxy-3-(3,4,5-trimethoxyphenylamino)propyl]-piperazine dimaleate] | 0.79 ± 0.04 | 0.043 ± 0.00532 | 
12 | Cc1ccc(NCC(O)CN2CCN(CCCC(c3ccc(F)cc3)c3ccc(F)cc3)CC2)cc1.Cl.Cl (centres unmarked) [Compound 14, 1-[4,4-Bis(4-fluorophenyl)-butyl]-4-[2-hydroxy-3-(4-methylphenylamino)propyl]-piperazine dihydrochloride] | 0.65 ± 0.03 | 0.004 ± 0.00041 | 
13 | Nc1ccc(NCC(O)CN2CCN(CCCC(c3ccc(F)cc3)c3ccc(F)cc3)CC2)cc1 (centres unmarked) [Compound 23, 1-[3-(4-Aminophenylamino)-2-hydroxypropyl]-4-(4,4-bis(4-fluorophenyl)butyl]piperazinetrimaleate] | 0.64 ± 0.09 | 0.037 ± 0.009 | 
14 | OC(CNc1ccc(Cl)c(Cl)c1)CN1CCN(CCCC(c2ccc(F)cc2)c2ccc(F)cc2)CC1 (centres unmarked) [Compound 12, 1-[4,4-Bis(4-fluorophenyl)-buyl]-4-[3-(3,4-dichloro-phenylamino)-2-hydroxy-propyl]piperazinedihydrochloride] | 0.74 ± 0.03 | 0.012 ± 0.00072 | 
15 | Cl.Cl.OC(CNc1ccc(F)cc1)CN1CCN(CCCC(c2ccc(F)cc2)c2ccc(F)cc2)CC1 (centres unmarked) [Compound 9, 1-[4,4-Bis(4-fluorophenyl)-butyl]-4-[3-(4-fluorophenyl-amino)-2-hydroxypropyl]-piperazine dihydrochloride] | 0.74 ± 0.01 | 0.004 ± 0.00023 | 
16 | O=C(O)/C=C\C(=O)O.O=C(O)/C=C\C(=O)O.Oc1ccc(NCC(O)CN2CCN(CCCC(c3ccc(F)cc3)c3ccc(F)cc3)CC2)cc1 (centres unmarked) [Compound 25, 1-[4,4-Bis(4-fluorophenyl)-butyl]-4-[2-hydroxy-3-(4-hydroxyphenylamino)propyl]-piperazine dimaleate] | 0.63 ± 0.09 | 0.01 ± 0.003 | 
17 | OC(CNc1ccccc1)CN1CCN(CCCCC(c2ccc(F)cc2)c2ccc(F)cc2)CC1 (centres unmarked) [Compound 21, 1-[5,5-Bis(4-fluorophenyl)-pentyl]-4-(2-hydroxy-3-phenylaminopropyl)piperazinedihydrochloride] | 0.89 ± 0.07 | 0.006 ± 0.00032 | 
18 | COc1ccc(NCC(O)CN2CCN(CCCC(c3ccc(F)cc3)c3ccc(F)cc3)CC2)cc1.Cl.Cl (centres unmarked) [Compound 13, 1-[4,4-Bis(4-fluorophenyl)-butyl]-4-(2-hydroxy-3-(4-methoxyphenylamino)propyl]-piperazine dihydrochloride] | 0.52 ± 0.02 | 0.003 ± 0.00016 | 
19 | CN(C)c1ccc(NCC(O)CN2CCN(CCCC(c3ccc(F)cc3)c3ccc(F)cc3)CC2)cc1 (centres unmarked) [Compound 24, 1-[4,4-Bis(4-fluorophenyl)-butyl]-4-[3-(4-dimethyl-aminophenylamino)-2-hydroxy-propyl]piperazine dimaleate] | 0.94 ± 0.10 | 0.109 ± 0.019 | 
